According to the supplement of paper PMC4858399:
Structures can show the parent of a compound that is named as a salt.

Experiments:
Details in all cases: exposure time 48 h
[1] = test system: Caenorhabditis elegans N2; assay: AC50 for larval growth inhibition (Hill fit); higher = less potent
Method in brief: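 Synchronised C. elegans N2 L1 larvae, 50 per well in 96-well plates, were grown at 20°C for 48 h in K-medium with killed OP50, 1% DMSO and 0.5–200 µM chemical. Worm size was read on a COPAS Biosort as extinction, log-transformed and averaged per well, and only wells holding at least 10 worms were kept. AC50 was obtained by a constrained Hill fit using weighted genetic-algorithm regression, with out-of-range values censored.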

[2] = test system: Caenorhabditis elegans N2; assay: lowest effective concentration for larval growth inhibition (size below effect threshold); higher = less potent
Method in brief: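 Chemical exposure ran for 48 h at 20°C: 50 C. elegans N2 L1 larvae per 96-well in K-medium with killed bacteria, 1% DMSO and 0.5, 1, 5, 10, 50, 100 or 200 µM chemical. Extinction of each worm, read as size on the Biosort, was log-transformed and averaged by well. The lowest effective concentration is the first dose whose plate-adjusted mean size is below a fixed value and remains so at all higher doses; the value is 5.665.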

[3] = test system: Caenorhabditis elegans N2; assay: mean nematode size ln(EXT) after 48 h, plate-adjusted (DMSO control set to 6) (ln(EXT), control-adjusted); higher = larger nematodes / less growth inhibition
Method in brief: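 In K-medium with killed OP50, 1% DMSO and 0.5–200 µM chemical, synchronised N2 L1 larvae of C. elegans (50 per well) grew for 48 h at 20°C. Extinction was read for every worm on the Biosort, with debris removed by a growth model. Natural-log values averaged per well gave mean size, which was corrected per plate by subtracting the vehicle control mean and adding 6.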

| Compound | AC50 for larval growth inhibition [1] | lowest effective concentration [2] | mean nematode size ln(EXT) (ln) ([3]; 0.5 µM) | mean nematode size ln(EXT) (ln) ([3]; 1 µM) | mean nematode size ln(EXT) (ln) ([3]; 5 µM) | mean nematode size ln(EXT) (ln) ([3]; 10 µM) | mean nematode size ln(EXT) (ln) ([3]; 50 µM) | mean nematode size ln(EXT) (ln) ([3]; 100 µM) | mean nematode size ln(EXT) (ln) ([3]; 200 µM) |
| --- | --- | --- | --- | --- | --- | --- | --- | --- | --- |
| CC(=O)N1CCN(c2ccc(OCC3COC(Cn4ccnc4)(c4ccc(Cl)cc4Cl)O3)cc2)CC1 (configuration not stated) [Ketoconazole] | 85.2 µM | 10 µM | 6 | 5.74 | 5.8 | 5.62 | 5.3 | 4.28 | 3.53 |
| CCOC(=O)C(C)OC(=O)c1cc(Oc2ccc(C(F)(F)F)cc2Cl)ccc1[N+](=O)[O-] (configuration not stated) [Lactofen] | 138 µM | 50 µM | 5.89 | 5.94 | 5.8 | 5.86 | 5.24 | 5.25 | 4.89 |
| Cl[C@H]1[C@H](Cl)[C@@H](Cl)[C@@H](Cl)[C@H](Cl)[C@H]1Cl [Lindane] | 175 µM | 50 µM | 5.77 | 5.98 | 5.79 | 5.94 | 5.42 | 5.2 | 4.35 |
| CON(C)C(=O)Nc1ccc(Cl)c(Cl)c1 [Linuron] | 104 µM | 100 µM | 6.04 | 6.22 | 6.19 | 5.98 | 6.16 | 5.57 | 4.43 |
| CC[C@H](C)C(=O)O[C@H]1C[C@@H](C)C=C2C=C[C@H](C)[C@H](CC[C@@H]3C[C@@H](O)CC(=O)O3)[C@H]21 [Lovastatin] | > 200 µM | 50 µM | 5.85 | 5.83 | 5.8 | 5.83 | 5.65 | 5.23 | 5.06 |
| CCOC(=O)CC(SP(=S)(OC)OC)C(=O)OCC (configuration not stated) [Malathion] | > 200 µM | 100 µM | 5.93 | 6.01 | 5.79 | 5.98 | 5.8 | 5.59 | 5.28 |
| S=C([S-])NCCNC(=S)[S-].S=C([S-])NCCNC(=S)[S-].[Mn+2].[Zn+2] [Mancozeb] | > 200 µM | 200 µM | 5.79 | 5.84 | 5.84 | 5.85 | 5.83 | 5.7 | 5.39 |
| S=C([S-])NCCNC(=S)[S-].[Mn+2] [Maneb] | > 200 µM | 200 µM | 5.91 | 5.98 | 6.05 | 5.98 | 5.9 | 5.83 | 5.52 |
| CC#Cc1cc(C)nc(Nc2ccccc2)n1 [Mepanipyrim] | > 200 µM | 200 µM | 5.81 | 5.81 | 5.8 | 5.84 | 5.7 | 5.75 | 5.21 |
| [Cl][Hg][Cl] [Mercuric chloride] | 7.77 µM | 5 µM | 5.91 | 5.84 | 5.47 | 4.41 | 3.59 | 3.72 | 3.64 |
| CS(=O)(=O)c1ccc(C(=O)C2C(=O)CCCC2=O)c([N+](=O)[O-])c1 [Mesotrione] | 107 µM | 200 µM | 5.87 | 5.92 | 5.92 | 6.03 | 5.9 | 5.68 | 5.41 |
| CNC(=S)S [Metam-sodium hydrate] | 191 µM | 200 µM | 6.25 | 6.2 | 6.21 | 6.3 | 6.43 | 6.13 | 5.52 |
| CCC(=O)C(CC(C)N(C)C)(c1ccccc1)c1ccccc1 (configuration not stated) [Methadone Hydrochloride] | > 200 µM | 200 µM | 5.87 | 5.81 | 5.87 | 5.88 | 5.7 | 5.81 | 5.54 |
| COc1nn(CSP(=S)(OC)OC)c(=O)s1 [Methidathion] | > 200 µM | 1 µM | 5.74 | 5.62 | 5.48 | 5.52 | 5.57 | 5.38 | 4.52 |
| CNC(=O)ON=C(C)SC [Methomyl] | 91.6 µM | 50 µM | 5.94 | 5.95 | 6.08 | 5.93 | 5.19 | 4.65 | 3.39 |
| COc1ccc(C(c2ccc(OC)cc2)C(Cl)(Cl)Cl)cc1 [Methoxychlor] | 39 µM | ≤ 0.5 µM | 5.6 | 5.46 | 5.58 | 5.19 | 4.71 | 4.01 | 3.61 |
| COc1cccc(C(=O)NN(C(=O)c2cc(C)cc(C)c2)C(C)(C)C)c1C [Methoxyfenozide] | 195 µM | 200 µM | 6.16 | 6.1 | 6.05 | 5.9 | 6 | 6.01 | 4.43 |
| COC(=O)c1ccccc1N [Methyl 2-aminobenzoate] | > 200 µM | 200 µM | 5.88 | 5.87 | 5.91 | 5.88 | 5.8 | 5.7 | 5.64 |
| CN=C=S [Methyl isothiocyanate] | > 200 µM | 200 µM | 6.14 | 6.37 | 6.06 | 6.02 | 5.96 | 6.02 | 5.06 |

| Compound | AC50 for larval growth inhibition [1] | lowest effective concentration [2] | mean nematode size ln(EXT) (ln) ([3]; 0.5 µM) | mean nematode size ln(EXT) (ln) ([3]; 1 µM) | mean nematode size ln(EXT) (ln) ([3]; 5 µM) | mean nematode size ln(EXT) (ln) ([3]; 10 µM) | mean nematode size ln(EXT) (ln) ([3]; 50 µM) | mean nematode size ln(EXT) (ln) ([3]; 100 µM) | mean nematode size ln(EXT) (ln) ([3]; 200 µM) |
| --- | --- | --- | --- | --- | --- | --- | --- | --- | --- |
| CCCCCCCCCCCC(=O)OC [Methyl laurate] | > 200 µM | 200 µM | 5.77 | 5.99 | 5.92 | 5.94 | 5.74 | 5.82 | 4.96 |
| CCCCCCCC(=O)OC [Methyl octanoate] | > 200 µM | 200 µM | 5.88 | 5.84 | 5.85 | 5.9 | 5.74 | 5.88 | 5.52 |
| COC(=O)c1ccccc1O [Methyl salicylate] | > 200 µM | 200 µM | 5.89 | 5.86 | 5.82 | 5.75 | 5.81 | 5.78 | 5.26 |
| N#CSCSC#N [Methylene bis(thiocyanate)] | 17.5 µM | ≤ 0.5 µM | 5.41 | 5.47 | 5.22 | 5.16 | 3.74 | 3.85 | 3.4 |
| CCc1cccc(C)c1N(C(=O)CCl)C(C)COC (configuration not stated) [Metolachlor] | > 200 µM | 50 µM | 5.64 | 5.7 | 5.74 | 5.81 | 5.63 | 5.63 | 5.64 |
| COC(=O)C=C(C)OP(=O)(OC)OC [Mevinphos] | 156 µM | 200 µM | 6.16 | 6.21 | 6.22 | 6.29 | 4.99 | 5.74 | 3.88 |
| CN(C)c1ccc(C(=O)c2ccc(N(C)C)cc2)cc1 [Michler's ketone] | > 200 µM | 200 µM | 5.78 | 5.87 | 5.83 | 5.78 | 5.82 | 5.88 | 5.58 |
| ClC1(Cl)C2(Cl)C3(Cl)C4(Cl)C(Cl)(Cl)C5(Cl)C3(Cl)C1(Cl)C5(Cl)C24Cl (configuration not stated) [Mirex] | > 200 µM | 50 µM | 5.34 | 5.5 | 5.57 | 6.06 | 5.56 | 5.51 | 5.59 |
| CCSC(=O)N1CCCCCC1 [Molinate] | > 200 µM | ≤ 0.5 µM | 5.42 | 5.42 | 5.29 | 5.63 | 5.44 | 5.62 | 5.21 |
| CN(C)C(=O)Nc1ccc(Cl)cc1 [Monuron] | > 200 µM | 200 µM | 5.99 | 6 | 5.94 | 5.98 | 5.86 | 5.79 | 5.34 |
| CCCCC(C#N)(Cn1cncn1)c1ccc(Cl)cc1 (configuration not stated) [Myclobutanil] | > 200 µM | 100 µM | 5.83 | 5.77 | 5.8 | 5.86 | 5.68 | 5.55 | 4.8 |
| CCN(CC)c1ccccc1 [N,N-Diethyl aniline] | 186 µM | 200 µM | 6.08 | 6.09 | 5.9 | 6 | 5.98 | 6.05 | 4.83 |
| CCCCCCCCN(C)C [N,N-Dimethyloctylamine] | > 200 µM | 200 µM | 5.85 | 5.83 | 5.81 | 5.79 | 5.85 | 5.88 | 5.65 |
| CCCCCCCCCCCCN1CCCC1=O [N-Lauryl-2-pyrrolidone] | 16.1 µM | ≤ 0.5 µM | 5.42 | 5.51 | 5.45 | 4.97 | 3.49 | 3.53 | 3.03 |
| CCCCCCCCN(C)CCCCCCCC [N-Methyldioctylamine] | 182 µM | 200 µM | 5.78 | 5.86 | 5.87 | 5.75 | 5.78 | 5.83 | 4.13 |
| CCN(CC)N=O [N-Nitrosodiethylamine] | > 200 µM | 200 µM | 5.96 | 5.9 | 5.89 | 5.87 | 5.77 | 5.75 | 5.66 |
| O=NN(c1ccccc1)c1ccccc1 [N-Nitrosodiphenylamine] | > 200 µM | 200 µM | 6.12 | 6.03 | 6.08 | 6.08 | 6 | 5.87 | 5.26 |
| Nc1ccc(Nc2ccccc2)cc1 [N-Phenyl-1,4-benzenediamine] | 71.8 µM | 50 µM | 5.84 | 5.84 | 5.76 | 5.72 | 5.43 | 5.15 | 5.25 |
| COc1ccc(C(=O)Nc2nc3ccccc3c(NCc3ccccc3)c2C#N)cc1 [N-[4-(benzylamino)-3-cyanoquinolin-2-yl]-4-methoxybenzamide] | > 200 µM | 1 µM | 5.68 | 5.65 | 5.49 | 5.41 | 5.18 | 4.88 | 4.46 |
